The values below come from paper PMC3542833 (Journal of the American Chemical Society, 2012).

Assay [1] concerns tubulin. As to the kind of experiment: tubulin assembly assay. It counts as biochemical. Particulars: read-out: Inhibition of Tubulin Assembly IC50±SD; enantiopure analogues.
For assay [2], the system named is tubulin. As to the kind of experiment: inhibition of colchicine binding. Particulars: 5 μM inhibitor; enantiopure analogues.
A further assay has as its system NCI-60. As to the kind of experiment: NCI 60-cell screen. It counts as cell-based. Conditions: read-out: NCI-60 Mean GI50; mean over NCI-60 panel; enantiopure analogues.
For assay [3], the system named is tubulin. Particulars: previous finding; ref 5a; cited from earlier work.

Take (+)-chamaecypanone C [(+)-2]: the IC50 – broadly, the concentration that gives 50% inhibition – in the assay with tubulin [1] came out at 2200 ± 300 nM. The “% Inhibition of Colchicine Binding ± SD” value in the assay on tubulin [2] is 30±4.0%. Also, the GI50 (as a rule, the concentration at which growth is held to half of that of the control) in the assay with NCI-60 was determined as 280 nM. Further, the “activity of chamaecypanone C enantiomers (in words)” value in the assay with tubulin [3] is “active”.
